Measurements as given in US20080058213A1, “Benzoxazole Compounds” (priority 2004, published 2008).

How the values were obtained:
Assay type in all cases: in vivo
[1] = test system: southern crabgrass (Digitaria ciliaris); assay: Soil treatment test for upland field (Test Example 2): southern crabgrass; settings: soil treatment before germination, examined after 3 weeks
Text: (§1) Evaluation of the herbicidal effect is shown in the following six grades, by comparing the condition of untreated control and growth inhibition (%): • 0: 0%-less than 20% • 1: 20%-less than 40% • 2: 40%-less than 60% • 3: 60%-less than 80% • 4: 80%-less than 100% • 5: 100%.
(§2) Upland field soil was filled in 1/3,000 are pots, seeded with southern crabgrass (Digitaria ciliaris), common lambsquaters (Chenopodium album), slender amaranth (Amaranthus viridis), common purslane (Portulaca oleracea), velvetleaf (Abutilon theophrasti), wheat, corn and soybean. The seeds were covered up with the soil.
(§3) Wettable powders containing the object compounds (1) as identified in Table 1, which were formulated following Preparation Example 2, were diluted with adequate amount of water to secure the prescribed dose of the active ingredient, and uniformly sprayed onto the surface soil layer after the seeding and before germination of the weeds, at an application water of 15 liters per are.
(§4) After placing the test pots in a glasshouse which was kept at an average temperature of 25° C. for 3 weeks, the herbicidal effect was examined.
(§5) Evaluations of the herbicidal effect and phytotoxicity were made in the manner similar to those in the above Test Example 1.

[2] = test system: common lambsquaters (Chenopodium album); assay: Soil treatment test for upland field (Test Example 2): common lambsquaters; settings: soil treatment before germination, examined after 3 weeks
Text: as §1, §2, §3, §4, §5

[3] = test system: slender amaranth (Amaranthus viridis); assay: Soil treatment test for upland field (Test Example 2): slender amaranth; settings: soil treatment before germination, examined after 3 weeks
Text: as §1, §2, §3, §4, §5

[4] = test system: common purslane (Portulaca oleracea); assay: Soil treatment test for upland field (Test Example 2): common purslane; settings: soil treatment before germination, examined after 3 weeks
Text: as §1, §2, §3, §4, §5

[5] = test system: velvetleaf (Abutilon theophrasti); assay: Soil treatment test for upland field (Test Example 2): velvetleaf; settings: soil treatment before germination, examined after 3 weeks
Text: as §1, §2, §3, §4, §5

wheat [6] = assay: Soil treatment test for upland field (Test Example 2): phytotoxicity to wheat; settings: soil treatment before germination, examined after 3 weeks
Text: (§6) Evaluation of phytotoxicity is shown in the following six grades, as compared with the condition of untreated control: • 0: normal growth • 1: little damaged • 2: low damaged • 3: medium damaged • 4: serious damaged • 5: complete killed.
as §2, §4

corn [7] = assay: Soil treatment test for upland field (Test Example 2): phytotoxicity to corn; settings: soil treatment before germination, examined after 3 weeks
Text: as §6, §2, §4

soybean [8] = assay: Soil treatment test for upland field (Test Example 2): phytotoxicity to soybean; settings: soil treatment before germination, examined after 3 weeks
Text: as §6, §2, §4

southern crabgrass = assay: Foliage treatment test for upland field (Test Example 3): southern crabgrass; settings: foliage treatment at 1.0-2.0 leaf stage of southern crabgrass, examined after 3 weeks
Text: as §1
(§7) Compost mixed soil was filled in 1/3,000 are pots, seeded with southern crabgrass, common lambsquaters, slender amaranth, common purslane, velvetleaf, wheat, corn and soybean. The seeds were covered up with the soil and cultured in a glasshouse kept at 25° C. on the average.
(§8) Wettable powders containing the object compounds (1) as identified in Table 1, which were formulated following Preparation Example 2, were diluted with water to the prescribed dose of the active ingredient, and uniformly sprayed onto the weeds at 1.0-2.0 leaf stage of the southern crabgrass at an application water of 15 liters per are.
(§9) After placing the test pots in a grasshouse kept at 25° C. on the average for 3 weeks, the herbicidal effect was examined.
(§10) Evaluation of the herbicidal effect was conducted in the similar manner to Test Example 1.

common lambsquaters = assay: Foliage treatment test for upland field (Test Example 3): common lambsquaters; settings: foliage treatment at 1.0-2.0 leaf stage of southern crabgrass, examined after 3 weeks
Text: as §1, §7, §8, §9, §10

slender amaranth = assay: Foliage treatment test for upland field (Test Example 3): slender amaranth; settings: foliage treatment at 1.0-2.0 leaf stage of southern crabgrass, examined after 3 weeks
Text: as §1, §7, §8, §9, §10

common purslane = assay: Foliage treatment test for upland field (Test Example 3): common purslane; settings: foliage treatment at 1.0-2.0 leaf stage of southern crabgrass, examined after 3 weeks
Text: as §1, §7, §8, §9, §10

velvetleaf = assay: Foliage treatment test for upland field (Test Example 3): velvetleaf; settings: foliage treatment at 1.0-2.0 leaf stage of southern crabgrass, examined after 3 weeks
Text: as §1, §7, §8, §9, §10

wheat [9] = assay: Foliage treatment test for upland field (Test Example 3): phytotoxicity to wheat; settings: foliage treatment at 1.0-2.0 leaf stage of southern crabgrass, examined after 3 weeks
Method: as §6, §7, §9

corn [10] = assay: Foliage treatment test for upland field (Test Example 3): phytotoxicity to corn; settings: foliage treatment at 1.0-2.0 leaf stage of southern crabgrass, examined after 3 weeks
Method: as §6, §7, §9

soybean [11] = assay: Foliage treatment test for upland field (Test Example 3): phytotoxicity to soybean; settings: foliage treatment at 1.0-2.0 leaf stage of southern crabgrass, examined after 3 weeks
Method: as §6, §7, §9

SMILES | Herbicidal Effect southern crabgrass ([1]; dose 2.5 g ai/a) | Herbicidal Effect southern crabgrass ([1]; dose 5 g ai/a) | Herbicidal Effect common lambsquaters ([2]; dose 2.5 g ai/a) | Herbicidal Effect common lambsquaters ([2]; dose 5 g ai/a) | Herbicidal Effect slender amaranth ([3]; dose 2.5 g ai/a) | Herbicidal Effect slender amaranth ([3]; dose 5 g ai/a) | Herbicidal Effect common purslane ([4]; dose 2.5 g ai/a) | Herbicidal Effect common purslane ([4]; dose 5 g ai/a) | Herbicidal Effect velvetleaf ([5]; dose 2.5 g ai/a) | Herbicidal Effect velvetleaf ([5]; dose 5 g ai/a) | Phytotoxicity wheat (wheat [6]; dose 2.5 g ai/a) | Phytotoxicity wheat (wheat [6]; dose 5 g ai/a) | Phytotoxicity corn (corn [7]; dose 2.5 g ai/a) | Phytotoxicity corn (corn [7]; dose 5 g ai/a) | Phytotoxicity soybean (soybean [8]; dose 2.5 g ai/a) | Phytotoxicity soybean (soybean [8]; dose 5 g ai/a) | Herbicidal Effect southern crabgrass (southern crabgrass; dose 2.5 g ai/a) | Herbicidal Effect southern crabgrass (southern crabgrass; dose 5 g ai/a) | Herbicidal Effect Common lambsquatters (common lambsquaters; dose 2.5 g ai/a) | Herbicidal Effect Common lambsquatters (common lambsquaters; dose 5 g ai/a) | other results
CCSCC(=Cc1cccc(C(F)(F)F)c1)c1nc2cc(C(F)(F)F)ccc2o1 [Compound 84] | 3 (60%-less than 80%) | 3 (60%-less than 80%) | 5 (100%) | 5 (100%) | 4 (80%-less than 100%) | 5 (100%) | 5 (100%) | 5 (100%) | 2 (40%-less than 60%) | 2 (40%-less than 60%) | 0 | 0 | 0 | 0 | 0 | 0 | 4 (80%-less than 100%) | 4 (80%-less than 100%) | 4 (80%-less than 100%) | 5 (100%) | Herbicidal Effect slender amaranth (slender amaranth; dose 2.5 g ai/a): 5 (100%); Herbicidal Effect slender amaranth (slender amaranth; dose 5 g ai/a): 5 (100%); Herbicidal Effect common purslane (common purslane; dose 2.5 g ai/a): 4 (80%-less than 100%); Herbicidal Effect common purslane (common purslane; dose 5 g ai/a): 5 (100%); Herbicidal Effect velvetleaf (velvetleaf; dose 2.5 g ai/a): 2 (40%-less than 60%); Herbicidal Effect velvetleaf (velvetleaf; dose 5 g ai/a): 3 (60%-less than 80%); Phytotoxicity wheat (wheat [9]; dose 2.5 g ai/a): 0; Phytotoxicity wheat (wheat [9]; dose 5 g ai/a): 0; Phytotoxicity corn (corn [10]; dose 2.5 g ai/a): 0; Phytotoxicity corn (corn [10]; dose 5 g ai/a): 1; Phytotoxicity soybean (soybean [11]; dose 2.5 g ai/a): 0; Phytotoxicity soybean (soybean [11]; dose 5 g ai/a): 0
CSCC(=Cc1cccc(C(F)(F)F)c1)c1nc2cc(C(F)(F)F)ccc2o1 [Compound 82] | 3 (60%-less than 80%) | 3 (60%-less than 80%) | 5 (100%) | 5 (100%) | 5 (100%) | 5 (100%) | 5 (100%) | 5 (100%) | 2 (40%-less than 60%) | 2 (40%-less than 60%) | 0 | 0 | 0 | 0 | 0 | 0 | 4 (80%-less than 100%) | 4 (80%-less than 100%) | 5 (100%) | 5 (100%) | Herbicidal Effect slender amaranth (slender amaranth; dose 2.5 g ai/a): 5 (100%); Herbicidal Effect slender amaranth (slender amaranth; dose 5 g ai/a): 5 (100%); Herbicidal Effect common purslane (common purslane; dose 2.5 g ai/a): 5 (100%); Herbicidal Effect common purslane (common purslane; dose 5 g ai/a): 5 (100%); Herbicidal Effect velvetleaf (velvetleaf; dose 2.5 g ai/a): 2 (40%-less than 60%); Herbicidal Effect velvetleaf (velvetleaf; dose 5 g ai/a): 3 (60%-less than 80%); Phytotoxicity wheat (wheat [9]; dose 2.5 g ai/a): 0; Phytotoxicity wheat (wheat [9]; dose 5 g ai/a): 0; Phytotoxicity corn (corn [10]; dose 2.5 g ai/a): 0; Phytotoxicity corn (corn [10]; dose 5 g ai/a): 1; Phytotoxicity soybean (soybean [11]; dose 2.5 g ai/a): 1; Phytotoxicity soybean (soybean [11]; dose 5 g ai/a): 1
